Biological target: T1, human MRGPRX2 (Homo sapiens, UniProt Q96LB1)
T1 construct: expressed in transfected cells
T1 sequence (Q96LB1 1-330): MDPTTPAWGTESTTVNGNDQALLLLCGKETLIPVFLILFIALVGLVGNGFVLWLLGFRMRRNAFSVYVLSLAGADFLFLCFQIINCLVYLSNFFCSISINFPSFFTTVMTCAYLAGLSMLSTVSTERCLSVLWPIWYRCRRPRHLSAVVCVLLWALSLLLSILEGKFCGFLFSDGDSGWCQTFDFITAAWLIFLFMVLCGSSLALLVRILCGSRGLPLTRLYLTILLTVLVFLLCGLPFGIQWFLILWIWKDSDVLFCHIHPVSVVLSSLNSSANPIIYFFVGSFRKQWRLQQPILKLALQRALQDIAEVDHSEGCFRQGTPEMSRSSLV
Experiment: MRGPRX2 activity: IP-One HTRF antagonist assay versus 0.3 uM Cortistatin 14
Assay type: cell-based
Settings: CHO cells expressing human MRGPRX2; IP-1 HTRF; versus 0.3 uM Cortistatin 14 agonist; read-out: MRGPR2 Antagonist Activity
Procedure: CHO cells stably transfected to express human MRGPRX2 were maintained in an incubator at 37° C. with 5% CO2 and grown in F12 (HAM) media with 10% fetal bovine serum (FBS), 1% Glutamax, 1% penicillin/streptomycin, 800 μg/mL Geneticin (G418), and 300 μg/mL Hygromycin B.
Cells were plated in a […] assay plate at 20,000 cells per well in 12 μL of Opti-MEM and kept in an incubator overnight. On the day of the assay, compounds solubilized at 10 mM in DMSO were added as a 10-point curve (30 uM final top concentration with 1:3 serial dilutions) using a Tecan D300E digital dispenser. Agonists were diluted in assay buffer (final concentrations of 5.7 mM Tris-HCl, 43 mM NaCl, 50 mM LiCl, pH=8) and 2 μL of the agonist Cortistatin 14 (CPC Scientific, catalog CORT-002) are added to each well. Final concentrations of agonists were 0.3 μM Cortistatin. Final concentrations of DMSO were kept consistent across the plate. Plates were incubated in the dark for 1 h at 37° C. and then for 1 h at room temperature. IP-1 standards and HTRF detection reagents were added according to the IP-One-Gq Kit purchased from Cisbio (part number 62IPAPEJ) and incubated in the dark for 1 h at room temperature. The plate was read on a Molecular Devices SpectraMax iD5 plate reader. The HTRF ratio was calculated from the raw data and graphed using GraphPad Prism to calculate an IC50 value for each compound.
The activity ranges are denoted as follows: “+++++” denotes antagonist activity <100 nM; “++++” denotes antagonist activity between 100 and 500 nM; “+++” denotes activity between 501 and 1000 nM; “++” denotes activity between 1001 and 2500 nM; and “+” denotes activity >2500 nM

Structure (SMILES) | IC50 [nM]
O=C(N[C@H]1CC[C@@H](Nc2cc(C(F)F)nc3ccc(Cl)cc23)CC1)c1ccc(F)cc1 [1-3, 4-fluoro-N-[(1s,4s)-4-{[6-chloro-2-(difluoromethyl)quinolin-4-yl]amino}cyclohexyl]benzamide] | 100 to 500
O=C(N[C@H]1CC[C@@H](Nc2cc(C(F)(F)F)nc3ccccc23)CC1)c1ccccc1Cl [3-12] | 100 to 500
O=C(N[C@H]1CC[C@@H](Nc2cc(C(F)(F)F)nc3ccccc23)CC1)c1ccccn1 [3-21] | 501 to 1000
CCC(C(=O)N[C@H]1CC[C@@H](Nc2cc(C(F)(F)F)nc3ccccc23)CC1)c1ccccc1 (some centres unmarked) [3-24] | 1000 to 2500
COc1ccc(C(=O)N[C@H]2CC[C@@H](Nc3cc(C(F)(F)F)nc4ccccc34)CC2)cc1F [3-27] | 501 to 1000
O=C(N[C@H]1CC[C@@H](Nc2cc(C(F)(F)F)nc3ccccc23)CC1)c1cccs1 [3-36] | 501 to 1000
O=C(N[C@H]1CC[C@@H](Nc2cc(C(F)(F)F)nc3ccccc23)CC1)c1cccc(F)c1 [3-42] | 100 to 500
O=C(N[C@H]1CC[C@@H](Nc2cc(C(F)(F)F)nc3ccc(Cl)cc23)CC1)c1n[nH]c2c1COCC2 [4-60] | 501 to 1000
O=C(N[C@H]1CC[C@@H](Nc2cc(C(F)(F)F)nc3ccc(Cl)cc23)CC1)C1CCN(C(=O)c2ccccc2Cl)CC1 [4-122] | > 2500
CC(C)Cc1cc(C(=O)N[C@H]2CC[C@@H](Nc3cc(C(F)(F)F)nc4ccc(Cl)cc34)CC2)n(C)n1 [4-129] | 1000 to 2500
O=C(CCOc1cccc(F)c1)N[C@H]1CC[C@@H](Nc2cc(C(F)(F)F)nc3ccc(Cl)cc23)CC1 [4-134] | > 2500
Cc1cc(C(F)(F)F)nn1CC(=O)N[C@H]1CC[C@@H](Nc2cc(C(F)(F)F)nc3ccc(Cl)cc23)CC1 [4-141] | 1000 to 2500
O=C(N[C@H]1CC[C@@H](Nc2cc(C(F)(F)F)nc3ccc(Cl)cc23)CC1)c1cccn1-c1ccccc1 [4-162] | 1000 to 2500
CCCS(=O)(=O)Nc1ccc(F)c(C(=O)N[C@H]2CC[C@@H](Nc3cc(C(F)(F)F)nc4ccc(Cl)cc34)CC2)c1F [4-173] | 100 to 500
CC1C(C(=O)N[C@H]2CC[C@@H](Nc3cc(C(F)(F)F)nc4ccc(Cl)cc34)CC2)CC2CC1C2(C)C (some centres unmarked) [4-200] | 1000 to 2500
CCCc1nnsc1C(=O)N[C@H]1CC[C@@H](Nc2cc(C(F)(F)F)nc3ccc(Cl)cc23)CC1 [4-209] | 1000 to 2500
O=C(N[C@H]1CC[C@@H](Nc2cc(C(F)(F)F)nc3ccccc23)CC1)c1ccnc2ccccc12 [4-230] | 1000 to 2500
O=C(N[C@H]1CC[C@@H](Nc2cc(C(F)(F)F)nc3ccccc23)CC1)c1ccc(Cl)s1 [4-241] | 501 to 1000
N#Cc1ccc(C(=O)N[C@H]2CC[C@@H](Nc3cc(C(F)(F)F)nc4ccccc34)CC2)s1 [4-242] | 1000 to 2500
N#Cc1csc(C(=O)N[C@H]2CC[C@@H](Nc3cc(C(F)(F)F)nc4ccccc34)CC2)c1 [4-243] | 501 to 1000
O=C(N[C@H]1CC[C@@H](Nc2cc(C(F)(F)F)nc3ccccc23)CC1)c1cc(Cl)cs1 [4-251] | 501 to 1000
COc1ccc(C(=O)N[C@H]2CC[C@@H](Nc3cc(C(F)(F)F)nc4ccccc34)CC2)cc1N(C)C [4-258] | 501 to 1000
O=C(N[C@H]1CC[C@@H](Nc2cc(C(F)(F)F)nc3ccccc23)CC1)c1ccc2ncccc2n1 [4-265] | 1000 to 2500
O=C(N[C@H]1CC[C@@H](Nc2cc(C(F)(F)F)nc3ccccc23)CC1)c1coc2ccccc12 [4-272] | 100 to 500
O=C(N[C@H]1CC[C@@H](Nc2cc(C(F)(F)F)nc3ccccc23)CC1)[C@H]1C[C@@H]1c1ccccc1 [4-291] | 1000 to 2500

Results, then the compound that gave them:

IC50 [nM] | Structure (SMILES)
501 to 1000 | COc1ccc(C(=O)N[C@H]2CC[C@@H](Nc3cc(C(F)(F)F)nc4ccc(Cl)cc34)CC2)c(C)n1 [4-6]
100 to 500 | CNc1cccc(C(=O)N[C@H]2CC[C@@H](Nc3cc(C(F)(F)F)nc4ccc(Cl)cc34)CC2)c1 [4-8]
< 100 | O=C(N[C@H]1CC[C@@H](Nc2cc(C(F)(F)F)nc3ccc(Cl)cc23)CC1)c1ccc2[nH]c(-c3ccncc3)nc2c1 [4-23]
501 to 1000 | O=C(N[C@H]1CC[C@@H](Nc2cc(C(F)(F)F)nc3ccc(Cl)cc23)CC1)c1ccc2nc(Cl)sc2c1 [4-57]
501 to 1000 | Cn1cc(I)c(C(=O)N[C@H]2CC[C@@H](Nc3cc(C(F)(F)F)nc4ccc(Cl)cc34)CC2)n1 [4-90]
100 to 500 | CN(C)c1ccc(C(=O)N[C@H]2CC[C@@H](Nc3cc(C(F)(F)F)nc4ccc(Cl)cc34)CC2)cc1 [4-102]
< 100 | CC(=O)Nc1ccc(C(=O)N[C@H]2CC[C@@H](Nc3cc(C(F)(F)F)nc4ccc(Cl)cc34)CC2)cc1 [4-103]
501 to 1000 | O=C(N[C@H]1CC[C@@H](Nc2cc(C(F)(F)F)nc3ccc(Cl)cc23)CC1)c1csnn1 [4-107]
100 to 500 | CS(=O)(=O)c1ccc(C(=O)N[C@H]2CC[C@@H](Nc3cc(C(F)(F)F)nc4ccc(Cl)cc34)CC2)c(Cl)c1 [4-123]
100 to 500 | O=C(N[C@H]1CC[C@@H](Nc2cc(C(F)(F)F)nc3ccc(Cl)cc23)CC1)c1ccc2oc(=O)ccc2c1 [4-145]
100 to 500 | O=C1Nc2c(C(=O)N[C@H]3CC[C@@H](Nc4cc(C(F)(F)F)nc5ccc(Cl)cc45)CC3)cccc2C1=O [4-164]
100 to 500 | CC(C)C(=O)Nc1cccc(C(=O)N[C@H]2CC[C@@H](Nc3cc(C(F)(F)F)nc4ccc(Cl)cc34)CC2)c1 [4-279]
100 to 500 | CN(C)C(=O)Nc1cccc(C(=O)N[C@H]2CC[C@@H](Nc3cc(C(F)(F)F)nc4ccc(Cl)cc34)CC2)c1 [4-281]
100 to 500 | CCNc1cccc(C(=O)N[C@H]2CC[C@@H](Nc3cc(C(F)(F)F)nc4ccc(Cl)cc34)CC2)c1 [4-282]
100 to 500 | O=C1CCc2ccc(C(=O)N[C@H]3CC[C@@H](Nc4cc(C(F)(F)F)nc5ccc(Cl)cc45)CC3)cc2N1 [4-283]
< 100 | CNC(=O)Nc1cccc(C(=O)N[C@H]2CC[C@@H](Nc3cc(C(F)(F)F)nc4ccc(Cl)cc34)CC2)c1 [Example 5A]

— patent publication US11970452B2, “Modulators of mas-related G-protein receptor X2 and related products and methods” (Escient Pharmaceuticals, Inc., priority 2020, dated 2024)
